In ChEMBL document CHEMBL3352224, “Synthesis and biological evaluation of piperlongumine derivatives as potent anti-inflammatory agents” (Bioorg Med Chem Lett, 2014):

What was measured:
RAW264.7 [1] = assay: Antiinflammatory activity in mouse RAW264.7 cells assessed as inhibition of LPS-induced NO production at 1 uM; type: functional
RAW264.7 [2] = assay: Antiinflammatory activity in mouse RAW264.7 cells assessed as inhibition of LPS-induced NO production at 10 uM; type: functional
[3] = Cytotoxicity against mouse RAW264.7 cells assessed as cell proliferation at 1 uM; type: cell-based; conditions: read-out: Activity
[4] = Cytotoxicity against mouse RAW264.7 cells assessed as cell proliferation at 10 uM; type: cell-based; conditions: read-out: Activity
RAW264.7 [5] = assay: Antiinflammatory activity in mouse RAW264.7 cells assessed as inhibition of LPS-induced NO production; type: functional, cell-based

Compound `COc1cc(/C=C/C(=O)N2CCCCC2=O)cc(OC)c1OC` has an inhibition at 1 µM (RAW264.7 [1]) of 1%, an inhibition at 10 µM (RAW264.7 [2]) of 46% and a viability at 1 µM [3] of 107%. The viability at 10 µM [4] was 101% and the IC50 (RAW264.7 [5]) was 14 µM.

Work on `COc1cc(/C=C/C(=O)N2CCCC2=O)cc(OC)c1OC` yielded an inhibition at 1 µM (RAW264.7 [1]) of 1%, an inhibition at 10 µM (RAW264.7 [2]) of 28% and a viability at 1 µM [3] of 105%. For the same compound, the viability at 10 µM [4] was 102% and the IC50 (RAW264.7 [5]) was 80 µM.

In the case of `CCC(=O)NC(=O)/C=C/c1cc(OC)c(OC)c(OC)c1`, the inhibition at 1 µM (RAW264.7 [1]) is reported as -1%, the inhibition at 10 µM (RAW264.7 [2]) is reported as 16% and the viability at 1 µM [3] is reported as 97%. For the same compound, the viability at 10 µM [4] was 103% and the IC50 (RAW264.7 [5]) was 64 µM.

Work on `COc1cc(/C=C/C(=O)N2CCC2=O)cc(OC)c1OC` yielded an inhibition at 1 µM (RAW264.7 [1]) of 1%, an inhibition at 10 µM (RAW264.7 [2]) of 22% and a viability at 1 µM [3] of 97%. The viability at 10 µM [4] was 92% and the IC50 (RAW264.7 [5]) was 64 µM.

In the case of `COc1cc(/C=C/C(=O)NC(C)=O)cc(OC)c1OC`, the inhibition at 1 µM (RAW264.7 [1]) is reported as -1%, the inhibition at 10 µM (RAW264.7 [2]) is reported as 16% and the viability at 1 µM [3] is reported as 104%. The viability at 10 µM [4] was 104% and the IC50 (RAW264.7 [5]) was 341 µM.

Work on `COc1cc(/C=C/C(=O)N2CCC=CC2=O)cc(OC)c1OC` [PIPLARTINE] yielded an inhibition at 1 µM (RAW264.7 [1]) of 11%, an inhibition at 10 µM (RAW264.7 [2]) of 91% and a viability at 1 µM [3] of 115%. For the same compound, the viability at 10 µM [4] was 77% and the IC50 (RAW264.7 [5]) was 3 µM.
